According to patent US6087383A (Bristol-Myers Squibb Company, priority 1998, dated 2000):
Where a name gives a salt, the structure may show the parent alone. Read-outs that look alike come from different tables or passages of the source.

Key:
[1] = Oral bioavailability in animals; type: in vivo; conditions: crystalline free base form as a suspension in water or oil
[2] = dog, in vivo
[3] = Description: (§1) In general, conversion of salts to the unionized form or vice versa can be explained on the basis of pH-solubility theory. […] At pH<pHmax the equilibrium solid converts to the corresponding salt form. The term "equilibrium solid phase" refers to the undissolved or excess solid in a suspension of the compound in water after sufficient equilibration time. When a salt of a weak base is equilibrated in water in an amount exceeding its solubility limit (i.e., a suspension of the salt in water), the resulting pH of the suspension may fall on either side of the pHmax depending on the strength of the acid among other factors. When the resulting pH is greater than the pHmax, the suspended solid converts to the free base.
[4] = pH 1.8
[5] = Crystal form characterisation (hygroscopicity); type: physicochemical; conditions: crystals obtained from isopropanol
Description: They are now referred to as Type-II crystals. The Type-I crystals appear to be an anhydrous/desolvated crystalline material while the Type-II crystals are a hydrated, hygroscopic crystalline form.

[6] = Aqueous solubility at 24±3° C.; conditions: water
Description: For development of pharmaceutical formulations, particularly oral dosage forms, the active ingredient must have sufficient oral bioavailability.

[7] = 40° C./75% RH; for changes in thermal behavior: as little as two weeks
[8] = Equilibration of excess salt in water: suspension pH and identity of undissolved solid phase; type: physicochemical; conditions: for pH of the suspension after equilibration / identity of undissolved solid phase after equilibration in water: excess salt in water; for pH of the suspension after equilibration: at least 24 hours (24±3° C. for methane sulfonate and hydrochloride); for identity of undissolved solid phase after equilibration in water: thermal and/or elemental analysis
Description: as §1
The undissolved solids from these suspensions were isolated, air-dried, and characterized.

in vivo = conditions: dog, po

Structure (SMILES) | solubility in water [4] | pH of the suspension after equilibration [8] | identity of undissolved solid phase after equilibration in water [8] | changes in thermal behavior [7] | other results
COC(=O)N[C@H](C(=O)N[C@@H](Cc1ccccc1)[C@@H](O)CN(Cc1ccc(-c2ccccn2)cc1)NC(=O)[C@@H](NC(=O)OC)C(C)(C)C)C(C)(C)C [Compound I, [3S-(3R*, 8'R*, 9'R*, 12R*)]-3,12-bis(1,1-dimethylethyl)-8-hydroxy-4,11-dioxo-9-(phenylmethyl)-6-[[4-(2-pyridinyl)phenylmethyl]-2,5,6,10,13-pentaazatetradecanedioic] acid, dimethyl ester] | less than 1 mg/mL | – | – | – | oral bioavailability [1]: poor oral bioavailability; oral bioavailability [2]: minimal oral bioavailability; pHmax (pH at which the compound exhibits the highest solubility) [3]: approximately 1.2
COC(=O)N[C@H](C(=O)N[C@@H](Cc1ccccc1)[C@@H](O)CN(Cc1ccc(-c2ccccn2)cc1)NC(=O)[C@@H](NC(=O)OC)C(C)(C)C)C(C)(C)C [Type-II crystals] | – | – | – | – | hygroscopicity [5]: hygroscopic
COC(=O)N[C@H](C(=O)N[C@@H](Cc1ccccc1)[C@@H](O)CN(Cc1ccc(-c2ccccn2)cc1)NC(=O)[C@@H](NC(=O)OC)C(C)(C)C)C(C)(C)C [benzenesulfonate] | – | – | – | – | solubility [6]: 1000 to 3000 µg/mL
COC(=O)N[C@H](C(=O)N[C@@H](Cc1ccccc1)[C@@H](O)CN(Cc1ccc(-c2ccccn2)cc1)NC(=O)[C@@H](NC(=O)OC)C(C)(C)C)C(C)(C)C [bisulfate salt] | 4 to 5 mg/mL | 1.9±0.2 | hydrated form of 2:1 salt of the free base form and sulfuric acid | – | changes in thermal behavior (differential scanning calorimetry) ([7]; 9 months, vs unstressed sample (2-8° C. closed container)): no significant changes in the thermal behavior; solid state transformation when suspended in water ([8]; suspension in water): prevents the conversion to the free base; bioavailability (in vivo): ~20%
COC(=O)N[C@H](C(=O)N[C@@H](Cc1ccccc1)[C@@H](O)CN(Cc1ccc(-c2ccccn2)cc1)NC(=O)[C@@H](NC(=O)OC)C(C)(C)C)C(C)(C)C [hydrochloride] | – | 2.1±0.1 | identified as the free base | significant changes in their thermal behavior | –
COC(=O)N[C@H](C(=O)N[C@@H](Cc1ccccc1)[C@@H](O)CN(Cc1ccc(-c2ccccn2)cc1)NC(=O)[C@@H](NC(=O)OC)C(C)(C)C)C(C)(C)C [methanesulfonate] | – | 2.1±0.1 | identified as the free base | significant changes in their thermal behavior | –
